We go through two compounds from article PMC7576493, “Novel ANO1 Inhibitor from Mallotus apelta Extract Exerts Anticancer Activity through Downregulation of ANO1” (International Journal of Molecular Sciences, 2020).

The target in assay [1] is T1, Anoctamin1 (ANO1) (Homo sapiens, UniProt Q5XXA6).
T1 sequence (Q5XXA6 1-986): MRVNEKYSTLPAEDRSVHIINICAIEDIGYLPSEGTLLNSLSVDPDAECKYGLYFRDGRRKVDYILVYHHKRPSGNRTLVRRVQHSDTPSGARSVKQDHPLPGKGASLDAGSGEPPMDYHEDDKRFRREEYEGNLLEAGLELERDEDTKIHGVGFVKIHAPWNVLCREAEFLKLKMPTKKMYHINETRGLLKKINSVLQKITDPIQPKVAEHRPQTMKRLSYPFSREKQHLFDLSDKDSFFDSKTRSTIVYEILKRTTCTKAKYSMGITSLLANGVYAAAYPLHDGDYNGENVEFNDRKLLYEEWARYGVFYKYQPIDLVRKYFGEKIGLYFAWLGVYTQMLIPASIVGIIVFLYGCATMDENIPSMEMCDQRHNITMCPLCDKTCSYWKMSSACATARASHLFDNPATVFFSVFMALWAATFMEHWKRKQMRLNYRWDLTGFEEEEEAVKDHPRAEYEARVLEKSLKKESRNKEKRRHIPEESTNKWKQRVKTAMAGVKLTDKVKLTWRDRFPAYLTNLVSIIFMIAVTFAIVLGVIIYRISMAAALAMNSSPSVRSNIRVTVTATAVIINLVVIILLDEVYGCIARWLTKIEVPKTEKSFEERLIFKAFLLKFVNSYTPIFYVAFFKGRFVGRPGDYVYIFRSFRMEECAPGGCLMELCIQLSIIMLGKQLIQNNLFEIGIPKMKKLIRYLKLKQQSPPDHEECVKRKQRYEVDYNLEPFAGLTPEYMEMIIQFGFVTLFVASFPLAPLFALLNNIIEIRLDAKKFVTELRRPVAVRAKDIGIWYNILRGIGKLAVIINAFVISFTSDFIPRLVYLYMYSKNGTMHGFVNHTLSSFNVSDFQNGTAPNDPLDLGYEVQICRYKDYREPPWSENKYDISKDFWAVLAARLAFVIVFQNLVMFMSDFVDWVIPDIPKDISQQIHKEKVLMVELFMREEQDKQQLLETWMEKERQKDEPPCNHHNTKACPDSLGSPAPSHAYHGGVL
Put plainly: YFP (F46L/H148Q/I152L) quenching iodide influx assay in FRT cells expressing human ANO1; […] inhibition at […]. The assay is classed as cell-based.

The target in assay [2] is T1, Anoctamin1 (ANO1). Put plainly: apical membrane (short-circuit) current in FRT cells expressing human ANO1; also YFP quenching assay. The assay is classed as cell-based.

On to `COc1cc2c(c(OC)c1C(=O)/C=C/c1ccccc1)C=CC(C)(C)O2` [compound 1, Ani-D1], for which, in assay [1], the inhibition (as a rule, the change of the read-out against control, counted positive when it falls) at 25 µM was > 99%. For the compound `COc1cc2c(c(OC)c1C(=O)CC(O)c1ccccc1)C=CC(C)(C)O2` (racemic) [compound 2, Ani-D2], the IC50 (as a rule, the midpoint of a concentration-inhibition curve) in assay [2] is 2640 nM.
